According to patent publication US5023266A, “Method of treatment of psychotic disorders” (Synthelabo, priority 1989, dated 1991):

Molecular target: σ-receptor
Assay: Inhibition of [3H]-(+)-3-PPP binding to the σ-receptor in rat cerebral cortex membranes
Conditions: 2nM [3H]-(+)-3-PPP, 90 min at 25° C., non-specific binding defined with 1μM haloperidol, read-out: IC50, concentration which inhibits 50 percent of the [3H]-(+)-3-PPP binding
Description: In particular their inhibitory activity on the binding of [^3 H](+)3(3-hydroxyphenyl)-N-(1-propyl)-piperidine, or [^3 H]-(+)-3-PPP, to the σ-receptor in the cerebral cortex of rats has been studied, essentially as described in J. Pharmacol. Exp. Ther., 238, 739-748, (1986). Male Sprague-Dawley rats (150-200 g) were sacrificed, and the cerebral cortex was homogenized in 25 volumes of ice-cold Tris-HCl buffer (pH 7.4 at 25° C.) with the use of an Ultra-Turrax™ polytron. The homogenate was washed twice by centrifugation (10 min at 45,000g) and intermittent resuspension of the resulting pellet in fresh buffer. The final pellet was resuspended in 20 volumes of 50mM Tris-HCl buffer (pH 8.0 at 22° C.). A 75 μl aliquot of this membrane preparation was then incubated in a final volume of 250 μl with 2nM [^3 H]-(+)-3-PPP (specific activity 90 Ci/mmol; New England Nuclear) for 90 min at 25° C., in the absence or in the presence of competing drugs. After incubation, the membranes were recovered by filtration over 0.05% polyethyleneimine-pretreated Whatman™ GF/B filters using a Skatron™ Cell Harvester, and washed with ±2.5 ml of ice-cold 50mM Tris-HCl buffer (pH 7.7 at 0° C.). Non-specific binding was defined with 1μM haloperidol.
Data were analyzed by conventional graphical techniques and least-squares regression analysis where appropriate.
The following Table indicates the IC50 of the compounds, i.e. the concentration (μM) which inhibits 50 percent of the [^3 H]-(+)-3-PPP.

Row | IC50 | SMILES
1 | 7 nM | C[C@@H]([C@H](O)c1ccc(O)cc1)N1CCC(Cc2ccccc2)CC1 (single isomer, unassigned) [Compound 4]
2 | 3 nM | OC(CN1CCC(Cc2ccc(F)cc2)CC1)c1ccc(Cl)cc1 (racemic) [Compound 5]
3 | 9.2 nM | OC(CN1CCC(Cc2ccc(F)cc2)CC1)c1ccc(Cl)cc1 (single isomer, unassigned) [Compound 6]
4 | 9.8 nM | OC(CN1CCC(Cc2ccc(F)cc2)CC1)c1ccc(Cl)cc1 (single isomer, unassigned) [Compound 7]
5 | 10 nM | C[C@H]([C@H](O)c1ccc(O)cc1)N1CCC(Cc2ccccc2)CC1 (relative stereo) [Compound 2]
6 | 8 nM | C[C@@H]([C@H](O)c1ccc(O)cc1)N1CCC(Cc2ccccc2)CC1 (relative stereo) [Compound 1]
7 | 15 nM | C[C@@H]([C@H](O)c1ccc(O)cc1)N1CCC(Cc2ccccc2)CC1 (single isomer, unassigned) [Compound 3]
